Assay results published in patent publication US11214554B2, “Indoleamine 2,3-dioxygenase inhibitor, method for preparation and use thereof” (NANJING HUAWE MEDICINE TECHNOLOGY GROUP CO., LTD., priority 2018, dated 2022).
pIC50: −log10 of the molar value. Like-named read-outs stand apart in the source and are kept apart here. One block for each compound: values may come before it.

Tests used:
IDO1 enzyme = IDO1 enzyme (Homo sapiens (Human), UniProt P14902); assay: Determination of the IDO1 inhibitory activity of compounds (enzyme assay, absorbance at 480 nm); format: biochemical; details: 50 nM IDO1, 37° C., 30 minutes, pH 6.5, 1% DMSO; average of two tests
Procedure: 100 mM PBS containing 400 μM L-tryptophan, 20 mM ascorbate, 20 μM methylene blue and 1000 U/ml catalase, pH 6.5
All compounds were dissolved with DMSO. During the assay, each compound was diluted to a concentration as needed. The compound of each concentration was added to multi-wells, and the final concentration of DMSO was controlled at 1%.
a.) the reaction mixture was prepared by adding 50 nM IDO1 and the desired concentration of the test compound to 100 μL of IDO1 assay buffer. IDO1 and assay buffer need to be preheated to 37° C.
b.) The mixture was reacted in a constant temperature water tank at 37° C. for 30 minutes.
c.) 50 μL of 30% trichloroacetic acid was added.
d.) The above mixture was reacted in a constant temperature water tank at 52° C. for 30 minutes.
e.) The reaction mixture was centrifuged at 12000 g for 10 minutes at room temperature.
f.) 100 μL of the obtained supernatant and 100 μL of Ehrlich reagent were mixed.
g.) the absorbance at 480 nm was measured using an M5 microplate reader.
4. Data Analysis Inhibition rate=(ODpostive−ODsample)/(ODpositive−ODnegative)*100% 5. Results and Discussion
In this experiment, the inhibitory activity of the test compounds on the IDO1 enzyme was tested. Compounds of each diluted concentration were tested in multi-wells. The final concentration of the reaction system in DMSO was controlled to 1%. The inhibition rate was tested twice, and the average value was taken.

[1] = biological target: IDO protease in highly expressed HeLa cells (Homo sapiens (Human), UniProt P14902); assay: Inhibitory activity of compounds on IDO protease in highly expressed HeLa cells; format: cell-based; details: highly expressed HeLa cell line
Procedure: This method was used to determine the inhibitory effect of the compounds of the invention on the inhibitory activity of IDO protease in highly expressed HeLa cells.
Highly expressed HeLa cell line
a.) 50 μL of 30% trichloroacetic acid was added.
b.) The mixture was reacted in a constant temperature water tank at 52° C. for 30 minutes.
c.) The above mixture was centrifuge at 12,000 g for 10 minutes at room temperature.
d.) 100 μL of the supernatant was mixed with 100 μL of Ehrlich reagent.
e.) the absorbance was measured at 480 nm using an M5 microplate reader.
The software Graphpad Prism 5 was used with the calculation formula of log(inhibitor) vs. normalized response to perform IC50 curve fitting and the IC50 value was calculated.

[2] = Pharmacokinetic evaluation in SD rats after oral administration by single gavage; format: in vivo; details: rat, PO 75 mg/kg, plasma; for half-life: read-out: t½ (converted)
Procedure: 1. Experimental animals: 100 (half male and half female) SPF grade SD rats were purchased from Shanghai Cypre-Bikai Experimental Animal Co., Ltd. Among them, 72 medically qualified and healthy SD rats without abnormality (half male and half female) were used for the study. 2. Animal Administration
72 SD rats (half male and half female) were tested according to the following table. The drug samples were stirred at least 10 minutes before administration.
Blood samples were obtained through the jugular vein puncture, and each sample was collected for about 0.25 mL and added with heparin sodium for anticoagulation. The blood sampling was performed at time points as follows:
for oral administration group, before administration, 0.25 h, 0.5 h, 1 h, 2 h, 4 h, 6 h, 8 h, 24 h after administration.
After collection, the blood samples were placed on ice and the plasma was separated by centrifugation (centrifugation conditions: 8000 rpm, 6 minutes, 2-8° C.). The collected plasma was stored at −80° C. before analysis. Plasma samples were analyzed by the analysis department of the experimental institution using LC-MS/MS for the content of the test compound in the rat plasma. The LLOQ of the detection substance was 1 ng/mL.
According to the blood plasma concentration data of the drugs, the pharmacokinetic calculation software WinNonlin5.2 non-compartmental model was used to calculate the pharmacokinetic parameters AUC0-t, Cmax, Tmax, T1/2 d and other parameters of the test samples and their average value and standard deviation.
When pharmacokinetic parameters were calculated for samples with lower concentration than the lower limit of quantification, samples taken before the curve reached Cmax should be calculated with zero value, and samples taken after the curve reached Cmax should be calculated with non-quantitative (BLQ).
The main pharmacokinetic parameters of compounds in SD rats plasma after oral administration by single gavage

IDO1 enzyme, sequence (P14902 whole entry, species assumed): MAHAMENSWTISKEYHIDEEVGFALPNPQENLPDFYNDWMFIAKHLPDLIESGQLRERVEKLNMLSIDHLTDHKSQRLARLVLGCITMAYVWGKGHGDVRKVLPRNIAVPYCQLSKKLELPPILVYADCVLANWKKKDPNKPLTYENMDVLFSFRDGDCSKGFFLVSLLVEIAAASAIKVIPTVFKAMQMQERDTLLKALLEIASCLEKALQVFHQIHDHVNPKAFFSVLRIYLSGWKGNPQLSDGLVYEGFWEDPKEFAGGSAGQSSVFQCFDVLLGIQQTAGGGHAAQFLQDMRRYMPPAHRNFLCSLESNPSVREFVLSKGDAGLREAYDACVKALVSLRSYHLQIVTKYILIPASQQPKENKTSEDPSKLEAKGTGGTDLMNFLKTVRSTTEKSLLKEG
IDO protease in highly expressed HeLa cells, sequence (P14902 whole entry): as the sequence (P14902 whole entry, species assumed) above

pIC50 (IDO1 enzyme): 6.85
Compound: O/N=C(\Nc1ccc(F)c(F)c1)c1nonc1NOC1CCCCO1 (stereo not drawn) [Compound I-39]

pIC50 (IDO1 enzyme): 7.17
Compound: NS(=O)(=O)NCCONc1nonc1/C(=N/O)NCc1ccccc1 [Compound I-25]

pIC50 (IDO1 enzyme): 7.07
Compound: O=C(NCCONc1nonc1/C(=N/O)Nc1ccc(F)c(C(F)(F)F)c1)c1ccc(F)cc1 [Compound I-9]

pIC50 (IDO1 enzyme): 7.04
Compound: NS(=O)(=O)NCCCCONc1nonc1/C(=N/O)Nc1ccc(F)c(Br)c1 [Compound I-26]

pIC50 [1]: 7.68 | pIC50 (IDO1 enzyme): 7.55
Compound: O=C(CCC1CCC(ONc2nonc2/C(=N/O)Nc2ccc(F)c(F)c2)CC1)Nc1ccc(F)cc1 (stereo not drawn) [Compound I-50]

pIC50 (IDO1 enzyme): 7.03
Compound: Cc1ccc(CCONc2nonc2/C(=N/O)Nc2ccc(F)c(Br)c2)cc1 [Compound I-8]

pIC50 [1]: 7.42 | pIC50 (IDO1 enzyme): 7.44
Compound: NS(=O)(=O)NC(CO)CONc1nonc1/C(=N/O)Nc1ccc(F)cc1 (stereo not drawn) [Compound I-23]

pIC50 (IDO1 enzyme): 6.74
Compound: O=C(O)CCCONc1nonc1/C(=N/O)Nc1ccc(F)c(Br)c1 [Compound I-18]

pIC50 [1]: 7.46 | pIC50 (IDO1 enzyme): 7.38
Compound: NC(CCONc1nonc1/C(=N/O)Nc1ccc(F)c(Br)c1)C(=O)O (stereo not drawn) [Compound I-16]

pIC50 (IDO1 enzyme): 7.11
Compound: NS(=O)(=O)NOCCONc1nonc1/C(=N/O)Nc1ccc(F)c(Br)c1 [Compound I-44]

pIC50 (IDO1 enzyme): 7.18
Compound: O=C1NC(=O)C2(CCC(ONc3nonc3/C(=N/O)Nc3ccc(F)c(F)c3)CC2)N1 (stereo not drawn) [Compound I-49]

pIC50 [1]: 8.10 | AUC(0-inf) ([2]; female SD rats): 1990 ng·h/mL | Cmax ([2]; female SD rats): 3330 ng/mL | Tmax ([2]; female SD rats): 0.5 h | half-life ([2]; female SD rats): 1.42 h | AUC(0-inf) ([2]; male SD rats): 2390 ng·h/mL | Cmax ([2]; male SD rats): 4240 ng/mL | Tmax ([2]; male SD rats): 1 h | half-life ([2]; male SD rats): 1.98 h | pIC50 (IDO1 enzyme): 7.74
Compound: NS(=O)(=O)NC1(CONc2nonc2/C(=N/O)Nc2ccc(F)c(Br)c2)CC1 [Compound I-20]

pIC50 [1]: 7.42 | pIC50 (IDO1 enzyme): 7.46
Compound: O/N=C(\Nc1ccc(F)c(Br)c1)c1nonc1NOCCONc1nonc1/C(=N/O)Nc1ccc(F)c(Br)c1 [Compound I-43]

pIC50 (IDO1 enzyme): 7.05
Compound: Nc1ncc(C(=O)NCCONc2nonc2/C(=N/O)Nc2ccc(F)c(Cl)c2)s1 [Compound I-10]

pIC50 (IDO1 enzyme): 7.11
Compound: O/N=C(\Nc1ccc(F)c(F)c1)c1nonc1N1CCCCO1 [Compound I-38]

AUC(0-inf) ([2]; female SD rats): 7540 ng·h/mL | Cmax ([2]; female SD rats): 4240 ng/mL | Tmax ([2]; female SD rats): 1 h | half-life ([2]; female SD rats): 1.45 h | AUC(0-inf) ([2]; male SD rats): 8250 ng·h/mL | Cmax ([2]; male SD rats): 4760 ng/mL | Tmax ([2]; male SD rats): 1 h | half-life ([2]; male SD rats): 1.67 h
Compound: O=C(NCCONc1nonc1/C(=N/O)Nc1ccc(F)c(Br)c1)Nc1cc(F)cc(F)c1 [Compound I-40]

pIC50 [1]: 8.30 | AUC(0-inf) ([2]; female SD rats): 18700 ng·h/mL | Cmax ([2]; female SD rats): 7240 ng/mL | Tmax ([2]; female SD rats): 1 h | half-life ([2]; female SD rats): 2.34 h | AUC(0-inf) ([2]; male SD rats): 20700 ng·h/mL | Cmax ([2]; male SD rats): 8760 ng/mL | Tmax ([2]; male SD rats): 1 h | half-life ([2]; male SD rats): 2.12 h | pIC50 (IDO1 enzyme): 8.10
Compound: NS(=O)(=O)NCCONc1nonc1/C(=N/O)Nc1ccc(F)c(Br)c1 [Compound I-24]

pIC50 (IDO1 enzyme): 6.95
Compound: O/N=C(\Nc1ccc(F)c(C(F)(F)F)c1)c1nonc1NOCCc1cccs1 [Compound I-7]

pIC50 (IDO1 enzyme): 7.09
Compound: OCCONc1nonc1/C(=N/O)Nc1ccc(F)c(Br)c1 [Compound I-14]

pIC50 (IDO1 enzyme): 7.08
Compound: COC(=O)CSNc1nonc1/C(=N/O)Nc1ccc(F)cc1 [Compound I-51]

pIC50 (IDO1 enzyme): 6.91
Compound: CS(=O)(=O)NCCONc1nonc1/C(=N/O)Nc1ccc(F)c(F)c1 [Compound I-13]

pIC50 (IDO1 enzyme): 7.03
Compound: O/N=C(\Nc1ccc(F)c(F)c1)c1nonc1NOC1CCC(O)CC1 (stereo not drawn) [Compound I-35]

pIC50 (IDO1 enzyme): 7.03
Compound: OCCCONc1nonc1/C(=N/O)Nc1ccc(F)c(Cl)c1 [Compound I-15]

pIC50 (IDO1 enzyme): 7.19
Compound: COC(=O)C(CCONc1nonc1/C(=N/O)Nc1ccc(F)c(F)c1)NS(N)(=O)=O (stereo not drawn) [Compound I-22]

pIC50 [1]: 7.59 | pIC50 (IDO1 enzyme): 7.38
Compound: CC(N/C(=N\O)c1nonc1NOCCNS(N)(=O)=O)c1ccccc1 (stereo not drawn) [Compound I-27]

AUC(0-inf) ([2]; female SD rats): 11300 ng·h/mL | Cmax ([2]; female SD rats): 3410 ng/mL | half-life ([2]; female SD rats): 2.51 h | AUC(0-inf) ([2]; male SD rats): 12200 ng·h/mL | Cmax ([2]; male SD rats): 3940 ng/mL | Tmax ([2]; male SD rats): 0.5 h | half-life ([2]; male SD rats): 2.24 h
Compound: NS(=O)(=O)NCCNc1nonc1C(=NO)Nc1ccc(F)c(Br)c1 [INCB024360, Epacadostat, reference compound]

pIC50 (IDO1 enzyme): 7.38
Compound: NS(=O)(=O)NC1CCC(ONc2nonc2/C(=N/O)Nc2ccc(F)c(F)c2)CC1 (stereo not drawn) [Compound I-31]
